Results as given in PubChem BioAssay AID1963838 (Molecular Pharmacology Branch, DTP, NCI, 2024).
pIC50: −log10 of the molar value.

Tested on: 855422-203-R-J1-PDC complex spheroid viability
Experiment: Anticancer human tumor 855422-203-R-J1-PDC patient-derived bladder carcinoma cell line growth inhibition [POLQ]
Conditions: for pIC50: curve of first compound; for viability, T/C: stronger effect = lower value
Method in brief: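 Patient-derived tumour cells were co-cultured with HUVEC and mesenchymal stem cells as multicellular spheroids at 37 °C. They were treated with POLQ inhibitors (novobiocin, ART-558, RP6685) alone or combined with other agents. Top concentrations were at or near clinical Cmax (otherwise 10 microM; SN-38 at 1 microM), decreasing in half-log steps.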

[1] = second compound 0.0316 µM, first compound 0.0316 µM
[2] = second compound 0.0316 µM, first compound 0.1 µM
[3] = second compound 0.0316 µM, first compound 0.316 µM
[4] = second compound 0.0316 µM, first compound 1 µM
[5] = second compound 0.0316 µM, first compound 3.16 µM
[6] = second compound 0.0316 µM, first compound 10 µM
[7] = second compound 0.1 µM, first compound 0.0316 µM
[8] = second compound 0.1 µM, first compound 0.1 µM
[9] = second compound 0.1 µM, first compound 0.316 µM
[10] = second compound 0.1 µM, first compound 1 µM
[11] = second compound 0.1 µM, first compound 3.16 µM
[12] = second compound 0.1 µM, first compound 10 µM
[13] = second compound 0.316 µM, first compound 0.0316 µM
[14] = second compound 0.316 µM, first compound 0.1 µM
[15] = second compound 0.316 µM, first compound 0.316 µM
[16] = second compound 0.316 µM, first compound 1 µM
[17] = second compound 0.316 µM, first compound 3.16 µM
[18] = second compound 0.316 µM, first compound 10 µM
[19] = second compound 1 µM, first compound 0.0316 µM
[20] = second compound 1 µM, first compound 0.1 µM
[21] = second compound 1 µM, first compound 0.316 µM
[22] = second compound 1 µM, first compound 1 µM
[23] = second compound 1 µM, first compound 3.16 µM
[24] = second compound 1 µM, first compound 10 µM
[25] = second compound 3.16 µM, first compound 0.0316 µM
[26] = second compound 3.16 µM, first compound 0.1 µM
[27] = second compound 3.16 µM, first compound 0.316 µM
[28] = second compound 3.16 µM, first compound 1 µM
[29] = second compound 3.16 µM, first compound 3.16 µM
[30] = second compound 3.16 µM, first compound 10 µM
[31] = second compound 10 µM, first compound 0.0316 µM
[32] = second compound 10 µM, first compound 0.1 µM
[33] = second compound 10 µM, first compound 0.316 µM
[34] = second compound 10 µM, first compound 1 µM
[35] = second compound 10 µM, first compound 3.16 µM
[36] = second compound 10 µM, first compound 10 µM
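Further: spheroids exposed to compounds for seven days before readout.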

In the case of `CCCS(=O)(=O)Nc1ccc(F)c(C(=O)c2c[nH]c3ncc(-c4ccc(Cl)cc4)cc23)c1F` + COC1C(OC(N)=O)C(O)C(Oc2ccc3c(O)c(NC(=O)c4ccc(O)c(CC=C(C)C)c4)c(=O)oc3c2C)OC1(C)C, the pIC50 (second compound 0.0316 µM) was 5.23, the pIC50 (second compound 0.1 µM) was 5.23 and the pIC50 (second compound 0.316 µM) was 5.23. The pIC50 (second compound 1 µM) was 5.26, the pIC50 (second compound 3.16 µM) was 5.24 and the pIC50 (second compound 10 µM) was 5.23. It also gave a viability, T/C [1] of 112%, a viability, T/C [2] of 94.6% and a viability, T/C [3] of 113%. The viability, T/C [4] was 116%, the viability, T/C [5] was 113% and the viability, T/C [6] was 0.27%. For the same compound, the viability, T/C [7] was 117%, the viability, T/C [8] was 108% and the viability, T/C [9] was 115%. For the same compound, the viability, T/C [10] was 107%, the viability, T/C [11] was 106% and the viability, T/C [12] was 1.29%. For the same compound, the viability, T/C [13] was 118%, the viability, T/C [14] was 96.7% and the viability, T/C [15] was 114%. It also gave a viability, T/C [16] of 107%, a viability, T/C [17] of 109% and a viability, T/C [18] of 1.4%. The viability, T/C [19] was 119%, the viability, T/C [20] was 117% and the viability, T/C [21] was 108%. It also gave a viability, T/C [22] of 94.2%, a viability, T/C [23] of 98.7% and a viability, T/C [24] of 0.24%. For the same compound, the viability, T/C [25] was 102%, the viability, T/C [26] was 111% and the viability, T/C [27] was 110%. For the same compound, the viability, T/C [28] was 118%, the viability, T/C [29] was 103% and the viability, T/C [30] was 0.36%. For the same compound, the viability, T/C [31] was 108%, the viability, T/C [32] was 108% and the viability, T/C [33] was 96.2%. It also gave a viability, T/C [34] of 116%, a viability, T/C [35] of 110% and a viability, T/C [36] of 0.68%.

`COc1ccc([C@@H](O)c2cc(-c3ncnc4cc(N5CCOCC5)ccc34)c(F)cc2Cl)nn1` + COC1C(OC(N)=O)C(O)C(Oc2ccc3c(O)c(NC(=O)c4ccc(O)c(CC=C(C)C)c4)c(=O)oc3c2C)OC1(C)C showed a pIC50 (second compound 0.0316 µM) of 5.19, a pIC50 (second compound 0.1 µM) of 5.19 and a pIC50 (second compound 0.316 µM) of 5.18. The pIC50 (second compound 1 µM) was 5.21, the pIC50 (second compound 3.16 µM) was 5.19 and the pIC50 (second compound 10 µM) was 5.19. The viability, T/C [1] was 107%, the viability, T/C [2] was 102% and the viability, T/C [3] was 95.7%. It also gave a viability, T/C [4] of 81.1%, a viability, T/C [5] of 71.9% and a viability, T/C [6] of 37.7%. The viability, T/C [7] was 90.4%, the viability, T/C [8] was 113% and the viability, T/C [9] was 101%. It also gave a viability, T/C [10] of 89.8%, a viability, T/C [11] of 68.6% and a viability, T/C [12] of 39.1%. It also gave a viability, T/C [13] of 119%, a viability, T/C [14] of 121% and a viability, T/C [15] of 101%. It also gave a viability, T/C [16] of 86.9%, a viability, T/C [17] of 64.5% and a viability, T/C [18] of 41.9%. It also gave a viability, T/C [19] of 110%, a viability, T/C [20] of 108% and a viability, T/C [21] of 93.8%. For the same compound, the viability, T/C [22] was 98.7%, the viability, T/C [23] was 68.7% and the viability, T/C [24] was 35.3%. It also gave a viability, T/C [25] of 109%, a viability, T/C [26] of 107% and a viability, T/C [27] of 106%. It also gave a viability, T/C [28] of 84.8%, a viability, T/C [29] of 73.2% and a viability, T/C [30] of 37.2%. It also gave a viability, T/C [31] of 121%, a viability, T/C [32] of 110% and a viability, T/C [33] of 110%. It also gave a viability, T/C [34] of 91.2%, a viability, T/C [35] of 71.7% and a viability, T/C [36] of 36.9%.

For `Cn1ncnc1[C@H]1c2n[nH]c(=O)c3cc(F)cc(c23)N[C@@H]1c1ccc(F)cc1` + COC1C(OC(N)=O)C(O)C(Oc2ccc3c(O)c(NC(=O)c4ccc(O)c(CC=C(C)C)c4)c(=O)oc3c2C)OC1(C)C, the pIC50 (second compound 0.0316 µM) was less than 7.00, the pIC50 (second compound 0.1 µM) was less than 7.00 and the pIC50 (second compound 0.316 µM) was less than 7.00. The pIC50 (second compound 1 µM) was less than 7.00, the pIC50 (second compound 3.16 µM) was less than 7.00 and the pIC50 (second compound 10 µM) was less than 7.00. The viability, T/C (second compound 0.0316 µM, first compound 0.000316 µM) was 94.6%, the viability, T/C (second compound 0.0316 µM, first compound 0.001 µM) was 104% and the viability, T/C (second compound 0.0316 µM, first compound 0.00316 µM) was 116%. For the same compound, the viability, T/C (second compound 0.0316 µM, first compound 0.01 µM) was 106%, the viability, T/C [1] was 108% and the viability, T/C [2] was 108%. For the same compound, the viability, T/C (second compound 0.1 µM, first compound 0.000316 µM) was 81.8%, the viability, T/C (second compound 0.1 µM, first compound 0.001 µM) was 93.8% and the viability, T/C (second compound 0.1 µM, first compound 0.00316 µM) was 113%. It also gave a viability, T/C (second compound 0.1 µM, first compound 0.01 µM) of 95.3%, a viability, T/C [7] of 99.7% and a viability, T/C [8] of 96.6%. The viability, T/C (second compound 0.316 µM, first compound 0.000316 µM) was 106%, the viability, T/C (second compound 0.316 µM, first compound 0.001 µM) was 106% and the viability, T/C (second compound 0.316 µM, first compound 0.00316 µM) was 101%. It also gave a viability, T/C (second compound 0.316 µM, first compound 0.01 µM) of 108%, a viability, T/C [13] of 95.4% and a viability, T/C [14] of 118%. It also gave a viability, T/C (second compound 1 µM, first compound 0.000316 µM) of 110%, a viability, T/C (second compound 1 µM, first compound 0.001 µM) of 99.7% and a viability, T/C (second compound 1 µM, first compound 0.00316 µM) of 106%. The viability, T/C (second compound 1 µM, first compound 0.01 µM) was 107%, the viability, T/C [19] was 103% and the viability, T/C [20] was 95.9%. The viability, T/C (second compound 3.16 µM, first compound 0.000316 µM) was 105%, the viability, T/C (second compound 3.16 µM, first compound 0.001 µM) was 106% and the viability, T/C (second compound 3.16 µM, first compound 0.00316 µM) was 98.2%. For the same compound, the viability, T/C (second compound 3.16 µM, first compound 0.01 µM) was 94.4%, the viability, T/C [25] was 95.9% and the viability, T/C [26] was 102%. It also gave a viability, T/C (second compound 10 µM, first compound 0.000316 µM) of 108%, a viability, T/C (second compound 10 µM, first compound 0.001 µM) of 97.2% and a viability, T/C (second compound 10 µM, first compound 0.00316 µM) of 101%. For the same compound, the viability, T/C (second compound 10 µM, first compound 0.01 µM) was 109%, the viability, T/C [31] was 100% and the viability, T/C [32] was 84%.
